Data taken from patent US11179450B2, “Long chain antigen containing interepitope sequence that promotes antigen presentation to T cells” (MIE UNIVERSITY, priority 2013, dated 2021).

How the values were obtained:
[1] = test system: mouse fibrosarcoma cell line CMS5a; experiment: Mouse tumor growth test; format: in vivo, BALB/c mice; settings: FIG. 2; single dose of vaccine with CpG oligo DNA before subcutaneous CMS5a implantation (prophylactic condition); Student's t test
From the text: Long chain peptide antigens MEN, all containing three types of mouse CD8+ T cell epitope sequences (MA p265 (Sequence No. 27), NY p81 (Sequence No. 29), and mERK2 9m (Sequence No. 28)), were synthesized. The interepitope sequences between the respective epitopes were respectively six consecutive tyrosines (Y6) (Sequence No. 1), six consecutive glycines (G6) (Sequence No. 2), or six consecutive prolines (P6) (Sequence No. 3). Each long chain peptide antigen was complexed with CHP and administered in a single dose as a vaccine to a mouse. As a control, a short chain peptide vaccine, constituted of just the mERK2 9m peptide, was mixed with Freund's incomplete adjuvant and administered. In the process of administration, CpG oligo DNA was coadministered as an adjuvant. On the day after administration, a mouse fibrosarcoma cell line CMS5a, expressing mERK2 as a tumor antigen and presenting the CD8+ T cell epitope mERK2 9m derived from the same antigen, was implanted subcutaneously and its growth was recorded over time.
A subcloned CMS5a cell line, obtained from a CMS5 cell line isolated from fibrosarcoma induced by administering 3-methylcholanthrene to a BALB/c mouse, expresses mutant ERK2 (mERK2) as a tumor antigen and presents a CD8^+ T cell epitope derived from the mERK2. The CMS5a cell line cultured in a T75 flask (Nunc) was detached using PBS containing 0.5% trypsin and collected in RPMI1640 medium containing 10% FBS. After centrifuging (400×g, 5 minutes, 4° C.), the supernatant was removed, and the cells were rinsed twice with RPMI1640 medium, thereafter suspended in RPMI1640 medium at a concentration of 1×10^6 cells/100 μL, and implanted subcutaneously in BALB/c mice at a dose of 100 μL/individual. The CHP/long chain peptide complexes and the adjuvant were administered 7 days before tumor implantation (prophylactic condition). After tumor implantation, the length and breadth of the tumor were measured and the product thereof was recorded as tumor size. The data in the tumor growth test were compared by Student's t test using Microsoft® Excel® (Microsoft Corporation).

[2] = test system: F4/80+ cells (macrophages); experiment: In vitro uptake of FAM-labeled long chain peptide antigens by antigen-presenting cells (macrophages); format: cell-based; settings: FIG. 8, complexed with CHP, 10 μg/mL, mouse spleen cells, 60 minutes, in comparison to G6 and P6
From the text: Long chain peptide antigens MEN, all containing three types of mouse CD8+ T cell epitope sequences (MA p265 (Sequence No. 27), NY p81 (Sequence No. 29), and mERK2 9m (Sequence No. 28)), were synthesized. The interepitope sequences between the respective epitopes were respectively six consecutive tyrosines (Y6), six consecutive glycines (G6), or six consecutive prolines (P6) (Sequence Nos. 1-3). Each long chain peptide antigen, labeled with the fluorescent dye FAM, was complexed with CHP and administered in vitro to mouse dendritic cells and mouse macrophages. After 60 minutes, the fluorescence uptakes into the respective cells were measured by flow cytometry with the P5 fraction in the figure being deemed to correspond to the dendritic cells and the P6 fraction in the figure being deemed to correspond to the macrophages.
In vitro uptake of the long chain peptide antigens by antigen-presenting cells was measured as follows. Each long chain peptide labeled with a fluorescent dye was complexed with CHP by the method described above. Spleen cells separated from a normal mouse were added at 1×10^6 cells/0.5 mL/well to a 24-well plate. […] The uptake of the fluorescence-labeled long chain peptide antigens by CD11c^+ cells (dendritic cells) and F4/80^+ cells (macrophages) were observed using flow cytometry.

SNPARYEFLYYYYYYQYIHSANVLYYYYYYRGPESRLL (Long chain peptide antigen, containing three types of mouse CD8+ T cell epitope sequences (MA p265, NY p81, and mERK2 9m)) [MEN(Y6)]
growth of the tumor [1]: suppressed significantly (p<0.05) | fluorescence uptake into macrophages [2]: significantly higher
